Legend:
[1] = tested on: Mycobacterium tuberculosis CDC1551 (intracellular, in murine BMDM); test: area under intracellular growth-inhibition dose-response curve (AUC (% inhibition x dose, relative)); higher = more potent; settings: duration: 6 days; dose range: 0.13-80 uM, 8 points
Method in brief: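 In 384-well opaque plates, primary murine bone marrow-derived macrophages were infected with luciferase-expressing M. tuberculosis CDC1551 (multiplicity of infection 1, 1 h) 24 h after seeding, then treated for 6 days across final concentrations of 80–0.13 μM. Growth was measured by Bright-Glo luciferin assay, normalised to a reference drug control and the lowest-concentration wells. The reported value is the area under the growth-inhibition dose–response curve from GraphPad Prism.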

[2] = tested on: murine bone marrow-derived macrophages; test: area under cytotoxicity dose-response curve (AUC (% cytotoxicity x dose, relative)); higher = more cytotoxic; settings: duration: 6 days; dose range: 0.13-80 uM, 8 points
Method in brief: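 Cytotoxicity is expressed as the area under the dose–response curve from GraphPad Prism version 10. To obtain it, primary murine bone marrow-derived macrophages were incubated for 6 days at 37 °C in 5% CO2 across final concentrations of 80–0.13 μM. Viability came from CellTiter-Glo luminescence, and percent cytotoxicity was normalised to vehicle and positive control wells.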

**Q.** With BrC(=C\c1ccccc1)/C=N/n1cnnc1 as the compound, how does the “area under intracellular growth-inhibition dose-response curve” value [1] read?
**A.** Its value is 5.21.

**Q.** What about the “area under cytotoxicity dose-response curve” value [2] of the same compound?
**A.** The value was 97.5.

**Q.** COc1ccc(NC(=O)Cn2c(C)cc(=O)c3ccccc32)cc1 was tested. Which “area under intracellular growth-inhibition dose-response curve” value [1] did it give?
**A.** Its value is 182.

**Q.** What about the “area under cytotoxicity dose-response curve” value [2] of the same compound?
**A.** The value was less than 0.

**Q.** With O=C(NCCc1ccccc1)c1ccc(Br)o1 as the compound, how does the “area under intracellular growth-inhibition dose-response curve” value [1] read?
**A.** The value was 193.

**Q.** And the “area under cytotoxicity dose-response curve” value [2]?
**A.** The value was 46.2.

**Q.** How did the “area under intracellular growth-inhibition dose-response curve” value [1] turn out when CC(NC(=O)c1cccc(Cl)c1)C1CC2CCC1C2 (stereo unspecified) was run?
**A.** Its value is 225.

**Q.** And the “area under cytotoxicity dose-response curve” value [2]?
**A.** Its value is 48.5.

**Q.** Which “area under intracellular growth-inhibition dose-response curve” value [1] does the source give for Cc1cc(OCC(=O)N2CCCC2)cc(C)c1Cl here?
**A.** Its value is 254.

**Q.** And the “area under cytotoxicity dose-response curve” value [2]?
**A.** Its value is less than 0.

**Q.** For Cc1cc(C)n2nc3nc4c(cc3c2n1)CCCC4, which “area under intracellular growth-inhibition dose-response curve” value [1] is on record?
**A.** The value was 152.

**Q.** And the “area under cytotoxicity dose-response curve” value [2]?
**A.** The value was less than 0.

**Q.** Which results are given for Cc1ccc(OCCCC(=O)NNC(=O)c2ccncc2)cc1?
**A.** area under intracellular growth-inhibition dose-response curve [1]: 268; area under cytotoxicity dose-response curve [2]: 10.4

**Q.** What does the source list for CC1CCC(C(C)C)C(OC(=O)C[n+]2c(-c3ccccc3)n(C)c3ccccc32)C1.[Cl-] (stereo unspecified)?
**A.** area under intracellular growth-inhibition dose-response curve [1]: 202; area under cytotoxicity dose-response curve [2]: 56.7

**Q.** Which “area under intracellular growth-inhibition dose-response curve” value [1] does the source give for CC(C)(C)C(=O)/C(=C/c1ccncc1)n1cncn1 here?
**A.** The value was 32.

**Q.** What about the “area under cytotoxicity dose-response curve” value [2] of the same compound?
**A.** The value was 106.

**Q.** Which “area under intracellular growth-inhibition dose-response curve” value [1] does the source give for CCCCCC(=O)N1CCCC1 here?
**A.** Its value is 139.

**Q.** And the “area under cytotoxicity dose-response curve” value [2]?
**A.** Its value is 20.6.

**Q.** How did the “area under intracellular growth-inhibition dose-response curve” value [1] turn out when Cc1ccc(C(=O)NC2CCCCC2)cc1 was run?
**A.** The value was 228.

**Q.** And the “area under cytotoxicity dose-response curve” value [2]?
**A.** Its value is 43.3.

**Q.** Cc1cc(C(=O)N/N=C/c2ccc([N+](=O)[O-])o2)c(C)o1 was tested. Which “area under intracellular growth-inhibition dose-response curve” value [1] did it give?
**A.** The value was 142.

**Q.** What about the “area under cytotoxicity dose-response curve” value [2] of the same compound?
**A.** The value was 105.

**Q.** For O=C(NCc1ccc(F)cc1)c1ccc(Br)o1, which “area under intracellular growth-inhibition dose-response curve” value [1] is on record?
**A.** Its value is 228.

**Q.** What about the “area under cytotoxicity dose-response curve” value [2] of the same compound?
**A.** Its value is 42.3.

**Q.** What does the source list for COc1ccc(/C(C)=N/NC(=O)c2ccncc2)cc1?
**A.** area under intracellular growth-inhibition dose-response curve [1]: 229; area under cytotoxicity dose-response curve [2]: 151

**Q.** What does the source list for CCC(C)c1ccc(NC(=S)Nc2ccc(OC)cc2)cc1 (stereo unspecified)?
**A.** area under intracellular growth-inhibition dose-response curve [1]: 201; area under cytotoxicity dose-response curve [2]: 46.7

**Q.** What does the source list for O=C(N/N=C/c1ccccn1)c1ccncc1?
**A.** area under intracellular growth-inhibition dose-response curve [1]: 262; area under cytotoxicity dose-response curve [2]: 1.91

**Q.** Which results are given for Cc1cccc(-c2nsc(SCC(=O)N3CCCC3)n2)c1?
**A.** area under intracellular growth-inhibition dose-response curve [1]: 224; area under cytotoxicity dose-response curve [2]: 98

**Q.** How did the “area under intracellular growth-inhibition dose-response curve” value [1] turn out when CCOc1ccc(Br)cc1/C=N/NC(=O)c1ccncc1 was run?
**A.** The value was 268.

**Q.** And the “area under cytotoxicity dose-response curve” value [2]?
**A.** The value was less than 0.

**Q.** For CC(NC(=O)c1ccccc1F)c1ccccc1 (stereo unspecified), which “area under intracellular growth-inhibition dose-response curve” value [1] is on record?
**A.** Its value is 95.2.

**Q.** And the “area under cytotoxicity dose-response curve” value [2]?
**A.** Its value is 53.4.

**Q.** What does the source list for Cc1ccc(C(=O)NCc2ccc(Cl)cc2)o1?
**A.** area under intracellular growth-inhibition dose-response curve [1]: 263; area under cytotoxicity dose-response curve [2]: 15.1

**Q.** Which “area under intracellular growth-inhibition dose-response curve” value [1] does the source give for CS(=O)(=O)Nc1ccccc1C(=O)OCC(=O)N1CCC(c2ccccc2)=N1 here?
**A.** The value was 115.

**Q.** What about the “area under cytotoxicity dose-response curve” value [2] of the same compound?
**A.** Its value is less than 0.

**Q.** For Cc1ccc2nc(C)cc(S)c2c1, which “area under intracellular growth-inhibition dose-response curve” value [1] is on record?
**A.** The value was 108.

**Q.** What about the “area under cytotoxicity dose-response curve” value [2] of the same compound?
**A.** Its value is less than 0.

**Q.** With CCSc1nnc(NC(=O)[C@H](C)N2C(=O)C3CC=CCC3C2=O)s1 (stereo partly specified) as the compound, how does the “area under intracellular growth-inhibition dose-response curve” value [1] read?
**A.** The value was 129.

**Q.** What about the “area under cytotoxicity dose-response curve” value [2] of the same compound?
**A.** The value was less than 0.

**Q.** What does the source list for CC[n+]1c(/C=C/N(C)c2ccccc2)n(-c2ccccc2)c2ccc(-c3nc4ccccc4s3)cc21.[I-]?
**A.** area under intracellular growth-inhibition dose-response curve [1]: 162; area under cytotoxicity dose-response curve [2]: 146

**Q.** How did the “area under intracellular growth-inhibition dose-response curve” value [1] turn out when CCN(CC)CCNc1nc(-c2ccc(OC)cc2)c(-c2ccc(OC)cc2)s1 was run?
**A.** The value was 203.

**Q.** What about the “area under cytotoxicity dose-response curve” value [2] of the same compound?
**A.** The value was 3.78.

**Q.** What does the source list for Cc1c(Cl)sn(-c2ccc(Cl)cc2)c1=O?
**A.** area under intracellular growth-inhibition dose-response curve [1]: 130; area under cytotoxicity dose-response curve [2]: 60.1

**Q.** O=[N+]([O-])c1ccc(N2CCCCC2)s1 was tested. Which “area under intracellular growth-inhibition dose-response curve” value [1] did it give?
**A.** The value was 165.

**Q.** And the “area under cytotoxicity dose-response curve” value [2]?
**A.** The value was 14.5.

**Q.** What does the source list for COc1ccc(/C=N/NC(=O)c2ccncc2)cc1CN1CCN(c2ccc(F)cc2)CC1?
**A.** area under intracellular growth-inhibition dose-response curve [1]: 228; area under cytotoxicity dose-response curve [2]: 3.26

**Q.** Which “area under intracellular growth-inhibition dose-response curve” value [1] does the source give for CNC(=S)Nc1ccc(-c2nc3ccc(C)cc3s2)cc1 here?
**A.** The value was 262.

**Q.** What about the “area under cytotoxicity dose-response curve” value [2] of the same compound?
**A.** Its value is 5.79.

**Q.** Which results are given for O=C(N/N=C/C=C/c1ccccc1[N+](=O)[O-])c1ccncc1?
**A.** area under intracellular growth-inhibition dose-response curve [1]: 244; area under cytotoxicity dose-response curve [2]: 244

**Q.** What does the source list for Cc1nc(SCC(=O)NCc2ccc3c(c2)OCO3)nc(C)c1C?
**A.** area under intracellular growth-inhibition dose-response curve [1]: 54.6; area under cytotoxicity dose-response curve [2]: < 0

**Q.** Which results are given for CCC(=O)NC(=S)Nc1ccc(NC(=O)c2ccc(OC)cc2)cc1?
**A.** area under intracellular growth-inhibition dose-response curve [1]: 266; area under cytotoxicity dose-response curve [2]: < 0

**Q.** Which “area under intracellular growth-inhibition dose-response curve” value [1] does the source give for CCCc1nnc(NC(=S)Nc2ccccc2)s1 here?
**A.** The value was 213.

**Q.** What about the “area under cytotoxicity dose-response curve” value [2] of the same compound?
**A.** The value was less than 0.

**Q.** What does the source list for N#C/C(=N/Nc1ccc(OC(F)(F)F)cc1)C(N)=S?
**A.** area under intracellular growth-inhibition dose-response curve [1]: 62.6; area under cytotoxicity dose-response curve [2]: 90

**Q.** With O=C(Sc1cccc2cccnc12)c1ccc(F)cc1 as the compound, how does the “area under intracellular growth-inhibition dose-response curve” value [1] read?
**A.** The value was 110.

**Q.** And the “area under cytotoxicity dose-response curve” value [2]?
**A.** The value was 125.

**Q.** For O=C(NNC(=S)Nc1ccc(C(=O)O)c(O)c1)c1ccncc1, which “area under intracellular growth-inhibition dose-response curve” value [1] is on record?
**A.** The value was 170.

**Q.** And the “area under cytotoxicity dose-response curve” value [2]?
**A.** Its value is 30.7.

**Q.** Which results are given for CCN1/C(=C/c2ccc3cc(C)ccc3[n+]2C)Sc2ccc3sccc3c21.[I-]?
**A.** area under intracellular growth-inhibition dose-response curve [1]: 149; area under cytotoxicity dose-response curve [2]: 180

**Q.** Which results are given for NC(=S)N/N=C/c1cccc(Br)c1?
**A.** area under intracellular growth-inhibition dose-response curve [1]: 270; area under cytotoxicity dose-response curve [2]: 35

**Q.** With CNc1nc(N2CCc3ccccc32)ncc1F as the compound, how does the “area under intracellular growth-inhibition dose-response curve” value [1] read?
**A.** The value was 140.

**Q.** And the “area under cytotoxicity dose-response curve” value [2]?
**A.** Its value is less than 0.

**Q.** With Cc1ccc(C)c(NC(=O)CN(C)C(=O)c2ccc(S(=O)(=O)N3CCCCCC3)cc2)c1 as the compound, how does the “area under intracellular growth-inhibition dose-response curve” value [1] read?
**A.** Its value is 30.7.

**Q.** And the “area under cytotoxicity dose-response curve” value [2]?
**A.** Its value is less than 0.

**Q.** What does the source list for Cc1cc(C(F)F)nn1CC(=O)NC1C(=O)N2C(C(=O)O)=C(CSc3nnnn3C)CSC12 (stereo unspecified)?
**A.** area under intracellular growth-inhibition dose-response curve [1]: 86.3; area under cytotoxicity dose-response curve [2]: 110

**Q.** O=C(C=Cc1ccccc1)N1CCCCC1 was tested. Which “area under intracellular growth-inhibition dose-response curve” value [1] did it give?
**A.** The value was 119.

**Q.** What about the “area under cytotoxicity dose-response curve” value [2] of the same compound?
**A.** Its value is 46.5.

**Q.** For C/C(=N\Nc1nc(C)c(C)s1)c1ccc([N+](=O)[O-])cc1, which “area under intracellular growth-inhibition dose-response curve” value [1] is on record?
**A.** Its value is 222.

**Q.** And the “area under cytotoxicity dose-response curve” value [2]?
**A.** Its value is less than 0.
